# From paper PMC13065029 (PLOS One, 2026)
# Read-outs that look alike come from different tables or passages of the source.
# T1: Chikungunya virus (CHIKV) nsP2 protease (Chikungunya virus)
# T1 chain: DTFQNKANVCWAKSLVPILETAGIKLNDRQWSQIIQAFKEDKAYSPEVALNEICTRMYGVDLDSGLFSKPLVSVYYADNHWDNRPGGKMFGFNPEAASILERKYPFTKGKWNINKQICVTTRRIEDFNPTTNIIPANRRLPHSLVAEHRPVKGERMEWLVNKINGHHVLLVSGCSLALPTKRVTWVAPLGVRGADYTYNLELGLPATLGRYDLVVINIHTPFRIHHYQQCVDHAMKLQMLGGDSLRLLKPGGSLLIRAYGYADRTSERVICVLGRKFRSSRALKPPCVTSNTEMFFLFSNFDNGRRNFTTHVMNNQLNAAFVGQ
# Columns and labels:
# CHIKV nsP2^pro [1] = target: T2, CHIKV nsP2^pro (Chikungunya virus, UniProt Q8JUX6); conditions: FRET; ref [18]; read-out: IC₅₀; cited from earlier work
# CHIKV nsP2^pro [2] = target: T2, CHIKV nsP2^pro; conditions: fluorometry; ref [18]; cited from earlier work
# CHIKV nsP2^pro [3] = target: T2, CHIKV nsP2^pro; conditions: ref [18]; cited from earlier work
# [4] = tested on: Human alphaherpesvirus 1 (HSV-1); conditions: cited from earlier work
# CHIKV nsP2^pro [5] = target: T2, CHIKV nsP2^pro; conditions: MST; ref [67]; cited from earlier work
# Dengue virus = conditions: cited from earlier work
# Yellow Fever virus = conditions: cited from earlier work
# [6] = target: T1, Chikungunya virus (CHIKV) nsP2 protease; test: BLI; conditions: both partners purified
Molecule,IC50 (CHIKV nsP2^pro [1]),Kd (CHIKV nsP2^pro [2]),Inhibition Mode (CHIKV nsP2^pro [3]),also measured
"COc1ccc([C@@H]2CC(=O)c3c(O)cc(O)cc3O2)cc1O [Hesperetin (HST), Hesperetin]",2.5 ± 0.4 µM,31.6 ± 2.5 µM,Noncompetitive,–
"COc1ccc([C@@H]2CC(=O)c3c(O)cc(O[C@@H]4O[C@H](CO[C@@H]5O[C@@H](C)[C@H](O)[C@@H](O)[C@H]5O)[C@@H](O)[C@H](O)[C@H]4O)cc3O2)cc1O [Hesperidin (HSD), Hesperidin]",7.1 ± 1.1 µM,40.7 ± 2 µM,Noncompetitive,–
Mastoparan,–,–,–,antiviral activity [4]: antiviral activity
"CC1=C(CO)C(=O)O[C@@H]([C@@H](C)[C@H]2CC[C@H]3[C@@H]4C[C@H]5O[C@]56[C@@H](O)C=CC(=O)[C@]6(C)[C@H]4CC[C@]23C)C1 [Withaferin A (WFA), Withaferin A]",–,–,–,Kd (CHIKV nsP2^pro [5]): 64 µM
Phospholipase A2,–,–,–,antiviral activity (Dengue virus): antiviral activity; antiviral activity (Yellow Fever virus): antiviral activity
GILGKLWEGFKSIV (Stock of 10 mM in DMSO) [pantinin-1],–,–,–,Kd [6]: 9.29 µM
